Assay results published in PubChem BioAssay (NCI).
Values joined by “and” are separate entries in the source; they are usually repeats but may differ in a detail not shown here. Equal values may be shown once.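 Dose response: 5 concentrations. Exposure: 48 h. Format: 96-well plates. Endpoint: linear interpolation; highest concentration if not reached. Abbreviation: GI50, concentration required for 50% inhibition of growth. TGI: total growth inhibition.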

How the values were obtained:
Test in all cases: inhibition of tumour cell growth, NCI panel, 48 h
CAKI-1 renal = test system: CAKI-1 renal
LOX IMVI melanoma = test system: LOX IMVI melanoma
MCF7 breast = test system: MCF7 breast
NCI-H23 lung = test system: NCI-H23 lung
NCI/ADR-RES ovarian = test system: NCI/ADR-RES ovarian
OVCAR-5 ovarian = test system: OVCAR-5 ovarian
RPMI-8226 leukemia = test system: RPMI-8226 leukemia
SN12C renal = test system: SN12C renal
SNB-75 CNS = test system: SNB-75 CNS
NCI-H522 lung = test system: NCI-H522 lung

| SMILES | TGI (CAKI-1 renal) | TGI (LOX IMVI melanoma) | TGI (MCF7 breast) | TGI (NCI-H23 lung) | TGI (NCI/ADR-RES ovarian) | TGI (OVCAR-5 ovarian) | TGI (RPMI-8226 leukemia) | TGI (SN12C renal) | TGI (SNB-75 CNS) | GI50 (LOX IMVI melanoma) | GI50 (MCF7 breast) | GI50 (NCI-H23 lung) | GI50 (NCI-H522 lung) | TGI (NCI-H522 lung) | GI50 (NCI/ADR-RES ovarian) | GI50 (OVCAR-5 ovarian) | GI50 (RPMI-8226 leukemia) | GI50 (SN12C renal) | GI50 (SNB-75 CNS) | GI50 (CAKI-1 renal) |
| --- | --- | --- | --- | --- | --- | --- | --- | --- | --- | --- | --- | --- | --- | --- | --- | --- | --- | --- | --- | --- |
| O=C1NC(=O)C2=C1CCC2O (stereo not given) | > 100 µM | > 100 µM | > 100 µM | > 100 µM | > 100 µM | > 100 µM | > 100 µM | > 100 µM | > 100 µM |  |  |  |  |  |  |  |  |  |  |  |
| C=C1C(=O)O[C@H]2[C@H]1CC/C(COC(=O)/C=C/c1cccnc1)=C\CC[C@@]1(C)O[C@@H]21 |  | 2.93 µM | 2.72 µM | 15.4 µM | 14.1 µM | 5.94 µM | 6.15 µM | 7.92 µM | 24.1 µM | 1.55 µM | 0.748 µM | 3.42 µM | 1.33 µM | 3.48 µM | 3.3 µM | 2.11 µM | 1.9 µM | 2.38 µM | 11.3 µM |  |
| O=C(Oc1cccc(Nc2ncnc3ccccc23)c1)c1ccccc1Cl | 35.8 µM | 36.2 µM | 37.1 µM | 31.8 µM | 40.7 µM | > 100 µM |  | 49.6 µM |  | 15.8 µM | 11.7 µM | 13 µM | 7.23 µM | 26.8 µM | 14.5 µM | 32.3 µM |  | 15.5 µM |  | 9.6 µM |
| O=C1C2c3[nH]c4ccccc4c3C3CCSCC3C2C(=O)N1c1ccccc1 (stereo not given) | > 100 µM | > 100 µM |  | > 100 µM |  | > 100 µM | > 100 µM | > 100 µM | 44.7 µM |  |  |  |  | > 100 µM |  |  |  |  |  |  |
| COC(=O)C1Cc2c(n(C)c3ccccc23)C(c2ccccc2)N1 (stereo not given) | > 100 µM | > 100 µM |  | > 100 µM |  | > 100 µM | > 100 µM | > 100 µM | > 100 µM |  |  |  |  | 93.1 µM |  |  |  |  |  |  |
| CN(C)CCCNC(=O)c1cc(NC(=O)c2cc(NC(=O)CCCN3c4ccccc4C=Cc4ccccc43)cn2C)cn1C | 43.9 µM |  | > 100 µM | 54.8 µM | 59.9 µM | 46.9 µM | 6.21 µM | 43 µM | 62.9 µM |  | 4.2 µM | 10.6 µM | 4.11 µM | 19.8 µM | 23.6 µM | 19.7 µM | 2.29 µM | 13.8 µM | 13.6 µM | 18.5 µM |
| Nc1ccc(CCN2CCN(c3cccc(C(F)(F)F)c3)CC2)cc1 | > 100 µM | > 100 µM |  | > 100 µM |  | > 100 µM | > 100 µM | > 100 µM | > 100 µM |  |  |  |  | > 100 µM |  |  |  |  |  |  |
| Cc1c2cc[n+](C)cc2c(C)c2c1[nH]c1ccc(OC(C)C)cc12 | > 35.1 µM | 21.4 µM and 26.2 µM |  | 5.08 µM and 7.09 µM |  | > 100 µM and 67.3 µM | 36.9 µM and > 60.5 µM | 7.69 µM and 9.59 µM | 0.82 µM and 1.99 µM |  |  |  |  | 3.8 µM and 8.1 µM |  |  |  |  |  |  |
| COc1cccc2c(Nc3ccc(C(=O)NCCNCCO)cc3)cc(-c3ccccc3)nc12 | > 100 µM | 23.2 µM |  | > 100 µM | > 100 µM | > 100 µM | 60.3 µM | > 100 µM | 34.9 µM | 3.17 µM |  | 63.3 µM | 20.3 µM | 53.8 µM | > 100 µM | 76.7 µM | 24.5 µM | 34.3 µM |  | > 100 µM |
| CC1(c2ccccc2)CC12C(=O)NC(=O)NC2=O (stereo not given) | > 100 µM | > 100 µM |  | > 100 µM |  | > 100 µM | > 100 µM | > 100 µM |  |  |  |  |  | > 100 µM |  |  |  |  |  |  |
| CCC12CCC(O)C1N(C)CCC2Sc1ccccc1 (stereo not given) |  | > 100 µM |  | > 100 µM |  |  | > 100 µM | > 100 µM | 87.9 µM |  |  |  |  | > 100 µM |  |  |  |  |  |  |
| N#C[C@]12CC3(CC[C@H]1CC1(C2)OCCO1)OCCO3 | > 100 µM |  |  |  |  |  | > 100 µM | > 100 µM | > 100 µM |  |  |  |  | > 100 µM |  |  |  |  |  |  |
| COc1ccc(/C=C/C(=O)/C=C(/C=C/c2ccc(OC)c(OC)c2)OB(F)F)cc1OC |  | 2.19 µM | > 100 µM | 4.17 µM | > 100 µM | 5.86 µM | 2.81 µM |  | 8.06 µM | 0.808 µM | 0.4 µM | 1.33 µM | 0.291 µM | 1.45 µM | 0.529 µM | 2.26 µM | 0.427 µM |  | 1.02 µM |  |
| CC(=O)CC(=O)CCCC(=O)Nc1ccc(Cl)cc1Cl | > 100 µM | > 100 µM |  | > 100 µM |  | > 100 µM | > 100 µM | > 100 µM | > 100 µM |  |  |  |  | > 100 µM |  |  |  |  |  |  |
| O=C(Nc1cccc(C2=NCCN2)c1)c1ccc(OCCCOc2ccc(C(=O)Nc3cccc(C4=NCCN4)c3)cc2)cc1 | 84.6 µM |  |  |  | > 100 µM | 20.4 µM |  |  |  |  |  |  |  |  | 46.2 µM | 3.51 µM |  |  |  | 4.67 µM |
| COc1cccc(/C=C\c2cc(OC)c(OC)c(OC)c2)c1 | 56.4 µM |  |  | 9.4 µM |  | 63.6 µM | 42.3 µM | > 100 µM | 20.4 µM |  |  |  |  | 1.58 µM |  |  |  |  |  |  |
| Cc1ccc(C)c(NC(=O)CC2C(=O)Nc3ccccc3S2(=O)=O)c1 (stereo not given) | > 100 µM | > 100 µM |  | > 100 µM |  | > 100 µM | > 100 µM | > 100 µM | 45.7 µM |  |  |  |  |  |  |  |  |  |  |  |
| COC(=O)C/C(C)=C/[C@@H](O)[C@H]1O[C@@H]2CC/C(Cl)=C/C/C=C(/C)[C@H](OC(C)=O)CC(=O)O[C@@H]1C2 |  | 11.2 µM | 15.7 µM | 7.74 µM | > 25 µM | > 25 µM | 7.24 µM | 7.4 µM | 6.14 µM | 1.97 µM | 4.86 µM | 1.14 µM | 1.29 µM | > 25 µM | 9.91 µM | 8.17 µM | 1.44 µM | 1.01 µM | 1.16 µM |  |
| Cc1ccc(C)c(-n2c(-c3ccc(Br)cc3)csc2=NC(=O)c2ccccc2F)c1 |  | > 100 µM |  |  | > 100 µM | > 100 µM |  | > 100 µM | > 100 µM | > 100 µM |  |  |  |  | > 100 µM | > 100 µM |  | > 100 µM | > 100 µM |  |
